Values joined by “and” are separate entries in the source; they are usually repeats but may differ in a detail not shown here. Identical values can stand only once. Toxic doses and inconclusive results are not listed. Rule as the data show it: active = T/C of 150% or more; inactive = T/C below 125%.
Test system: L1210 leukemia ip in BDF1 mice, survival T/C
Assay: NCI In Vivo Anticancer Drug Screen. Data for tumor model L1210 Leukemia (intraperitoneal) in B6D2F1 (BDF1) mice
Details: endpoint: mean survival time, higher = longer survival
In short: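 In this screen, tumor-bearing mice given compound are compared to those given vehicle, and their survival values are reported as a treated-to-control quotient.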

[1] = dose: 100.0 mg/kg/injection, schedule: Q04DX003 (ip), vehicle: carboxymethylcellulose (CMC)
[2] = dose: 100.0 mg/kg/injection, schedule: Q01DX009 (ip), vehicle: Klucel (hydroxypropylcellulose) (HPC)
[3] = dose: 100.0 mg/kg/injection, schedule: Q04DX003 (ip), vehicle: Klucel (hydroxypropylcellulose) (HPC)
[4] = dose: 200.0 mg/kg/injection, schedule: Q01DX009 (ip), vehicle: Klucel (hydroxypropylcellulose) (HPC)
[5] = dose: 200.0 mg/kg/injection, schedule: Q04DX003 (ip), vehicle: Klucel (hydroxypropylcellulose) (HPC)
[6] = dose: 400.0 mg/kg/injection, schedule: Q01DX009 (ip), vehicle: Klucel (hydroxypropylcellulose) (HPC)
[7] = dose: 75.0 mg/kg/injection, schedule: Q01DX001 (ip), vehicle: saline
[8] = dose: 150.0 mg/kg/injection, schedule: Q01DX001 (ip), vehicle: saline
[9] = dose: 300.0 mg/kg/injection, schedule: Q01DX001 (ip), vehicle: saline
[10] = dose: 50.0 mg/kg/injection, schedule: Q01DX009 (ip), vehicle: saline with Tween-80
[11] = dose: 100.0 mg/kg/injection, schedule: Q01DX009 (ip), vehicle: saline with Tween-80
[12] = dose: 200.0 mg/kg/injection, schedule: Q01DX009 (ip), vehicle: saline with Tween-80
[13] = dose: 100.0 mg/kg/injection, schedule: Q01DX001 (ip), vehicle: carboxymethylcellulose (CMC)
[14] = dose: 200.0 mg/kg/injection, schedule: Q01DX001 (ip), vehicle: carboxymethylcellulose (CMC)
[15] = dose: 400.0 mg/kg/injection, schedule: Q01DX001 (ip), vehicle: carboxymethylcellulose (CMC)

Measured: T/C

CC1(C)CN(Cc2ccccc2)C(C)(C)CN1
inactive: dose: 0.19 mg/kg/injection, schedule: Q01DX009 (ip), vehicle: saline with Tween-80 93 % of control | dose: 0.39 mg/kg/injection, schedule: Q01DX009 (ip), vehicle: saline with Tween-80 100 % of control | dose: 0.78 mg/kg/injection, schedule: Q01DX009 (ip), vehicle: saline with Tween-80 106 % of control | dose: 1.56 mg/kg/injection, schedule: Q01DX009 (ip), vehicle: saline with Tween-80 101 % of control | dose: 12.5 mg/kg/injection, schedule: Q04DX003 (ip), vehicle: saline with Tween-80 92 % of control | dose: 25.0 mg/kg/injection, schedule: Q04DX003 (ip), vehicle: saline with Tween-80 103 % of control

CCCCCCCCS(=O)(=O)CCO
inactive: dose: 100.0 mg/kg/injection, schedule: Q01DX009 (ip), vehicle: carboxymethylcellulose (CMC) 93 % of control | [1] 106 % of control | dose: 200.0 mg/kg/injection, schedule: Q01DX009 (ip), vehicle: carboxymethylcellulose (CMC) 90 % of control | dose: 200.0 mg/kg/injection, schedule: Q04DX003 (ip), vehicle: carboxymethylcellulose (CMC) 101 % of control | dose: 400.0 mg/kg/injection, schedule: Q01DX009 (ip), vehicle: carboxymethylcellulose (CMC) 95 % of control | dose: 400.0 mg/kg/injection, schedule: Q04DX003 (ip), vehicle: carboxymethylcellulose (CMC) 106 % of control

Cc1cc(NC(=O)Nc2cc(F)ccc2F)no1
inactive: dose: 100.0 mg/kg/injection, schedule: Q01DX001 (ip), vehicle: Klucel (hydroxypropylcellulose) (HPC) 117 % of control | [2] 97 % of control | dose: 100.0 mg/kg/injection, schedule: Q04DX002 (ip), vehicle: Klucel (hydroxypropylcellulose) (HPC) 94 % of control and 90 % of control | [3] 99 % of control | dose: 200.0 mg/kg/injection, schedule: Q01DX001 (ip), vehicle: Klucel (hydroxypropylcellulose) (HPC) 106 % of control | [4] 92 % of control and 100 % of control | dose: 200.0 mg/kg/injection, schedule: Q04DX002 (ip), vehicle: Klucel (hydroxypropylcellulose) (HPC) 94 % of control and 97 % of control | [5] 103 % of control | dose: 400.0 mg/kg/injection, schedule: Q01DX001 (ip), vehicle: Klucel (hydroxypropylcellulose) (HPC) 101 % of control | [6] 97 % of control and 90 % of control | dose: 400.0 mg/kg/injection, schedule: Q04DX002 (ip), vehicle: Klucel (hydroxypropylcellulose) (HPC) 94 % of control and 101 % of control | dose: 400.0 mg/kg/injection, schedule: Q04DX003 (ip), vehicle: Klucel (hydroxypropylcellulose) (HPC) 103 % of control

COc1ccccc1C1CCCCCCC1OS(=O)(=O)c1ccc(C)cc1 (stereo not given)
inactive: dose: 18.75 mg/kg/injection, schedule: Q01DX009 (ip), vehicle: saline 97 % of control | dose: 37.5 mg/kg/injection, schedule: Q01DX009 (ip), vehicle: saline 95 % of control | dose: 75.0 mg/kg/injection, schedule: Q01DX001 (ip), vehicle: acetone 89 % of control | [7] 90 % of control | dose: 75.0 mg/kg/injection, schedule: Q01DX009 (ip), vehicle: saline 90 % of control | dose: 75.0 mg/kg/injection, schedule: Q04DX003 (ip), vehicle: saline 88 % of control | dose: 112.0 mg/kg/injection, schedule: Q01DX009 (ip), vehicle: saline 103 % of control | [8] 93 % of control | dose: 150.0 mg/kg/injection, schedule: Q04DX003 (ip), vehicle: saline 92 % of control | dose: 170.0 mg/kg/injection, schedule: Q01DX009 (ip), vehicle: saline 96 % of control | dose: 255.0 mg/kg/injection, schedule: Q01DX009 (ip), vehicle: saline 100 % of control | dose: 300.0 mg/kg/injection, schedule: Q01DX001 (ip), vehicle: acetone 89 % of control | [9] 92 % of control

O=NN(CCCl)C(=O)c1cc(Cl)cc(Cl)c1
inactive: dose: 12.5 mg/kg/injection, schedule: Q01DX009 (ip), vehicle: saline with Tween-80 115 % of control | dose: 25.0 mg/kg/injection, schedule: Q01DX009 (ip), vehicle: saline with Tween-80 117 % of control | [10] 111 % of control and 91 % of control | [11] 93 % of control | [12] 99 % of control

O=C1C=CC(=O)c2cc3ccccc3cc21
inactive: [13] 102 % of control

OCC(O)C1CCCCN1 (stereo not given)
inactive: dose: 100.0 mg/kg/injection, schedule: Q01DX009 (ip), vehicle: saline 91 % of control | dose: 100.0 mg/kg/injection, schedule: Q04DX003 (ip), vehicle: saline 97 % of control | dose: 200.0 mg/kg/injection, schedule: Q01DX009 (ip), vehicle: saline 100 % of control | dose: 200.0 mg/kg/injection, schedule: Q04DX003 (ip), vehicle: saline 97 % of control | dose: 400.0 mg/kg/injection, schedule: Q04DX003 (ip), vehicle: saline 97 % of control

CN(C)c1ccc2c(c1)Cc1cc(NC(N)=O)ccc1-2
inactive: [13] 115 % of control | [14] 96 % of control | [15] 91 % of control

O=C(O)c1ccccc1C(=O)Nc1cc(Cl)ccc1Cl
inactive: dose: 50.0 mg/kg/injection, schedule: Q01DX009 (ip), vehicle: Klucel (hydroxypropylcellulose) (HPC) 94 % of control | [2] 98 % of control | [3] 98 % of control | [4] 93 % of control | [5] 89 % of control

CCOc1ccccc1N1C(=O)CSC1=S
inactive: dose: 200.0 mg/kg/injection, schedule: Q04DX002 (ip), vehicle: other 117 % of control | dose: 400.0 mg/kg/injection, schedule: Q04DX002 (ip), vehicle: other 95 % of control

CCCCCCCCCCCCCCCC(=O)Nc1cccc2c[n+](CC(=O)c3ccc(NC(=O)CCC(=O)OC)cc3)ccc12
inactive: [11] 87 % of control | dose: 400.0 mg/kg/injection, schedule: Q01DX009 (ip), vehicle: saline with Tween-80 91 % of control | dose: 400.0 mg/kg/injection, schedule: Q04DX003 (ip), vehicle: saline with Tween-80 94 % of control

CS(=O)(=O)Oc1ccc2ccccc2c1[N+](=O)[O-]
inactive: [13] 98 % of control | [14] 98 % of control | [15] 98 % of control

Cc1cc(OC(=O)Nc2ccc(Cl)cc2C(F)(F)F)c(C)cc1Cl
inactive: [10] 98 % of control | [11] 95 % of control | [12] 109 % of control

Cc1ccc2c(c1)Nc1ccccc1C(=O)N2
inactive: [2] 98 % of control | [4] 93 % of control | [6] 91 % of control

FC(F)(F)c1cccc(C(OCCN2CCCC2)c2ccccc2)c1 (stereo not given)
inactive: dose: 6.25 mg/kg/injection, schedule: Q01DX009 (ip), vehicle: saline 92 % of control | dose: 12.5 mg/kg/injection, schedule: Q01DX009 (ip), vehicle: saline 95 % of control | dose: 25.0 mg/kg/injection, schedule: Q01DX009 (ip), vehicle: saline 110 % of control

CCCCC(CC)CNCC(CC)CCCC (stereo not given)
inactive: dose: 25.0 mg/kg/injection, schedule: Q04DX003 (ip), vehicle: carboxymethylcellulose (CMC) 100 % of control | dose: 50.0 mg/kg/injection, schedule: Q04DX003 (ip), vehicle: carboxymethylcellulose (CMC) 102 % of control | [1] 97 % of control | dose: 100.0 mg/kg/injection, schedule: Q04DX013 (ip), vehicle: carboxymethylcellulose (CMC) 96 % of control

c1ccn2cncc2c1
inactive: [7] 95 % of control | [8] 106 % of control | [9] 102 % of control
